“Also recorded” adds a separate entry of the source.
Assays:
[1] = parameters: species or system mice; conditions: mouse, in vivo, po
Text: (§1) Levels of NRH and other NAD-related metabolites in biological samples were obtained by using a cold liquid-liquid extraction using a mixture of methanol:water:chloroform in 5:3:5 (v/v), from which the polar phase was recovered for hydrophilic interaction ultra-high performance liquid chromatography mass spectrometry (UHPLC-MS) analysis. The UHPLC consisted of a binary pump, a cooled autosampler, and a column oven (DIONEX Ultimate 3000 UHPLC+ Focused, Thermo Scientific), connected to a triple quadrupole spectrometer (TSQ Vantage, Thermo Scientific) equipped with a heated electrospray ionisation (H-ESI) source. Of each sample, 2 μL were injected into the analytical column (2.1 mm×150 mm, 5 μm pore size, 200 Å HILICON iHILIC®-Fusion(P)), guarded by a pre-column (2.1 mm×20 mm, 200 Å HILICON iHILIC®-Fusion(P) Guard Kit) operating at 35° C. The mobile phase (10 mM ammonium acetate at pH 9, A, and acetonitrile, B) was pumped at 0.25 mL/min flow rate over a linear gradient of decreasing organic solvent (0.5-16 min, 90-25% B), followed by re-equilibration for a total run time of 30 min. The MS operated in positive mode at 3500 V with multiple reaction monitoring (MRM). The software Xcalibur v4.1.31.9 (Thermo Scientific) was used for instrument control, data acquisition and processing. Retention time and mass detection was confirmed by authentic standards.
Oral administration of NRH led to very similar results to those observed after IP administration. […] In contrast, NR levels were undetectable at 1 h after NR administration. As expected, NR treatment led to large increases in circulating NAM, which where ˜4-fold higher than those observed after NRH treatment.

3T3 fibroblasts = assay: NAD+ levels in 3T3 fibroblasts after NRH treatment; format: cell-based
Protocol: The ability of NRH to potently increase NAD+ was tested as well in other cell type models.

[2] = system: NRH-induced NAD+ Synthesis; assay: Intracellular NAD-related metabolites after NRH or NR treatment; format: cell-based
Text: as §1, with “standards. […]” for “standards.”

[3] = system: NAD+ levels in liver, muscle and kidney; assay: Tissue NAD+ levels after intraperitoneal injection of NR or NRH; format: in vivo, mice; conditions: IP 500 mg/kg, after 1 h
Protocol: The above results prompted us to test whether NRH could act as an effective NAD+ precursor in vivo. For this, we first intraperitoneally (IP) injected mice with either NR or NRH (500 mg/kg).

NAMPT = NAMPT (Mus musculus, UniProt Q99KQ4); assay: NRH action in presence of NAMPT inhibitor FK866; format: cell-based; conditions: FK866, a NAMPT inhibitor
Sequence of NAMPT (Q99KQ4 whole entry): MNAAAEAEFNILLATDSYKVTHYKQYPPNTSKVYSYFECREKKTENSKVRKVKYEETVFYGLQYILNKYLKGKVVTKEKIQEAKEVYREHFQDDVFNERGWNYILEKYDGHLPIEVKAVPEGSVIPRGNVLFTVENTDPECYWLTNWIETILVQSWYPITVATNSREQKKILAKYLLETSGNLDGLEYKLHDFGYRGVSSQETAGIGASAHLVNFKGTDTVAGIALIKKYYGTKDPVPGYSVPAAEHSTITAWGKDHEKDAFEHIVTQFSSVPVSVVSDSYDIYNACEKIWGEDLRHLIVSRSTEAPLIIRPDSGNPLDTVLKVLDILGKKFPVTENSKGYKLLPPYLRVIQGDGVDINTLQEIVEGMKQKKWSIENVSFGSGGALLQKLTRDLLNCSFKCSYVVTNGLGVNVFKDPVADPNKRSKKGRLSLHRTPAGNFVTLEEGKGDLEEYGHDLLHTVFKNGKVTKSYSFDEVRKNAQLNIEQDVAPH

adenosine kinase (AK) = target: T1, adenosine kinase (AK) (Mus musculus, UniProt P55264); assay: NRH-induced NAD+ synthesis under adenosine kinase inhibition (5-IT, ABT-702); format: cell-based
T1 construct: endogenous in cells; host or cells: AML12 cells
T1 sequence (P55264 whole entry): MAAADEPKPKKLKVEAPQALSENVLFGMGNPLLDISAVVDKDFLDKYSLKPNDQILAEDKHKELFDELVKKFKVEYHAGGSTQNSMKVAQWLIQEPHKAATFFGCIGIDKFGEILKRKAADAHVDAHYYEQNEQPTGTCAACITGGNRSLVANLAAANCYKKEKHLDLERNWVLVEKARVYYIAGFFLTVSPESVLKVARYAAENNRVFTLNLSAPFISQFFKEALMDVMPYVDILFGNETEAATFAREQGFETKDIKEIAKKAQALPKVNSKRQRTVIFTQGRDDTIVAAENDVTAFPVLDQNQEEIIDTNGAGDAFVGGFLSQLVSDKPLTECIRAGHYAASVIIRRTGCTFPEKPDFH
Protocol: AML12 cells were treated with an adenosine kinase inhibitor (5-IT; […]) for 1 hour prior to NRH treatment at the doses indicated. Then, 1 hour later, acidic extracts were obtained to measure NAD^+ levels. All values in the figure are expressed as mean +/−SEM of 3 independent experiments. * indicates statistical difference at p<0.05 vs. the respective vehicle treated group.
Considering the molecular structure of NRH, we reasoned that an alternative nucleoside kinase could be responsible for the phosphorylation of NRH. Confirming this expectation, the adenosine kinase (AK) inhibitor 5-iodotubercidin (5-IT) fully ablated the action of NRH. […] Metabolomic analyses further confirmed that upon inhibition of AK, the generation of NMNH, NADH and NAD+ was fully blunted, even if NRH was effectively entering the cell.

AML12 hepatocytes = assay: Intracellular NAD+ levels in AML12 hepatocytes after NRH or NR treatment (dose-response, time course); format: cell-based
Text: as §1
Even at such relatively low dose, NRH achieved similar increases in intracellular NAD+ levels to those reached with NR at 50-fold higher concentrations.
NRH actions were also extremely fast (FIG. 3), as significant increases in NAD+ levels were observed within 5 minutes after NRH treatment.

[4] = Stability in FBS supplemented media; format: in vitro ADME
Text: NR degradation to NAM has been proposed as a limitation for its pharmacological efficacy. To evaluate whether NRH was also susceptible to degradation to NAM, we spiked NRH or NR in isolated mouse plasma. […] We also tested the stability of NRH in other matrixes.

In the case of `NC(=O)C1=CN([C@@H]2O[C@H](CO)[C@@H](O)[C@H]2O)C=CC1` [NRH, dihydro-1-beta-D-ribofuranosyl-3-pyridinecarboxamide], the “NRH concentration in plasma” value [1] is reported as 11.16 ± 1.74 µM, the “administered compound in plasma” value [1] is reported as “detectable in plasma” and the “NAD+ levels” value (3T3 fibroblasts) is reported as “highly elevated NAD+ levels”. For the same compound, the “intracellular detection of NRH and NMNH” value ([2]; 5 minutes after treatment) was “could be detected intracellularly”, the “intracellular NR and NMN” value ([2]; after treatment, compared with NR) was “increase in intracellular NR and NMN, greater than that triggered by NR itself” and the “NAD+ levels in kidney” value [3] was “increased NAD+ levels”. For the same compound, the “NAD+ levels in liver” value [3] was “increased NAD+ levels”, the “NAD+ levels in muscle” value [3] was “increased NAD+ levels” and the “dependence of NRH action on NAMPT” value (NAMPT) was “NAMPT-independent”. For the same compound, the “formation of NR and NMN after NRH treatment with 5-IT” value (adenosine kinase (AK); 5-IT treatment) was “prevented the formation of NR and NMN”, the “action of NRH on NAD+ in presence of AK inhibitor 5-iodotubercidin (5-IT)” value (adenosine kinase (AK); AML12 cells, 5-IT 10 mM for 1 hour prior to NRH, NAD+ 1 hour later) was “fully ablated; also recorded: adenosine kinase dependent path” and the “generation of NMNH, NADH and NAD+ upon inhibition of AK” value (adenosine kinase (AK); metabolomic analyses) was “fully blunted”. The “NRH-mediated NAD+ synthesis in presence of AK inhibitor ABT-702” value (adenosine kinase (AK); second, structurally different AK inhibitor) was “role of AK in NRH-mediated NAD+ synthesis was confirmed”, the “ability to increase intracellular NAD+ compared with NR” value (AML12 hepatocytes; AML12 hepatocytes) was “superior to that of NR” and the “time to significant increases in NAD+ levels after treatment” value (AML12 hepatocytes; AML12 hepatocytes) was ≤ 5 min. For the same compound, the “increase in intracellular NAD+ levels at maximal effect” value (AML12 hepatocytes; NRH around the millimolar range) was “more than 10 fold”, the “fold higher NR concentration needed for similar increases in intracellular NAD+ levels” value (AML12 hepatocytes; NRH at 10 μM vs NR) was 50 fold and the “concentration of maximal effects on NAD+ synthesis” value (AML12 hepatocytes; dose-response) was “around the millimolar range”. For the same compound, the “concentration at which NAD+ levels are significantly increased” value (AML12 hepatocytes; dose-response, AML12 hepatocytes) was 10 µM and the “degradation to NAM in FBS supplemented media” value [4] was “did not degrade to NAM”.

Source: US20220296623A1, “REDUCED NICOTINAMIDERIBOSIDES FOR TREATING OR PREVENTING KIDNEY DISEASE” (SOCIETE DES PRODUITS NESTLE S.A., priority 2019, published 2022)
